US20240181089A1, “PHARMACEUTICAL POLYMER CONJUGATES” (priority 2021, published 2024)

Assays:
[1] = tested on: folate receptor (FR) isoforms FR-α and FR-β; details: Vaitilingam et al.; cited from earlier work
cancer cell lines = details: NPL6; cited from earlier work
4T1 cells [2] = test: Confocal microscopy mode-of-action test (cell detachment, anti-AIF, TUNEL, Hoechst) with or without PJ34; assay type: cell-based, murine; details: 1.5 h treatment
Description: In addition to the cytotoxicity featuring the simultaneous uptake of PI and A5, Fatokun et al. previously defined PARP-dependent nuclear translocation of AIF and subsequent generation of massive DNA breaks as the hallmark features of parthanatos (Parthanatos: mitochondrial-linked mechanisms and therapeutic opportunities. British journal of pharmacology 171, 2000-2016 (2014)). To investigate whether the observed PI+A5 + necrotic 4T1 cell deaths by the zinc compounds (FIG. 5B and 5C) accompanied these features, we performed confocal microscopy studies after 1.5 h treatment for assessing the occurrence of PARP-dependent cytotoxicity, nuclear AIF translocation, and DNA breaks using fluorescent probes of anti-AIF, TUNEL, and Hoechst 33342 (Hoechst) DNA stain upon co-incubation with a potent PARP1 and PARP2 inhibitor PJ34. Assessment of PAR-polymer content, however, could not be incorporated into this experiment due to unavailability of sufficiently sensitive fluorescent probe for PAR-polymer during this study. Also, any longer treatment time could not be applied to this experiment due to extensive cytotoxic changes observed in the C010DS-Zn treated groups.

[3] = tested on: 4T1 murine triple negative breast cancer cell line; assay type: cell-based; details: 24 h treatment, LDH release, 4T1 cells, expressed in zinc concentration
Description: 24 h in vitro cytotoxicity was tested for each compound against 4T1 murine triple negative breast cancer cell line in obtaining their IC5024h values using lactate dehydrogenase release assay (LDH assay), which were expressed in zinc concentration (μM Zn) units for comparative viewing.

4T1 cells [4] = test: Apoptosis-necrosis flow cytometry with annexinV (A5) and propidium iodide (PI); assay type: cell-based, murine
[5] = concentration-resolved study after 3 h treatment

CN(CC1CNc2nc(N)[nH]c(=O)c2N1C)c1ccc(C(=O)N[C@@H](CCC(=O)O)C(=O)O)cc1 (some centres unmarked) [DMTHF, N^5, N^10-dimethyl tetrahydrofolate]
folate receptor isoform preference [1]: higher affinity for FR-α over FR-β

zinc pyrithione [ZnPyr2]
PARP cleavage (cancer cell lines): complete PARP cleavage
mode of cell death (cancer cell lines): induced apoptosis in cancer cell lines

O=S(=O)([O-])[O-].[Zn+2] [zinc sulfate]
nuclear AIF translocation and DNA damages (TUNEL) (4T1 cells [2]): failed to elicit significantly higher nuclear AIF translocation nor the DNA damages
cell detachment (4T1 cells [2]; all concentrations tested): did not cause marked cell detachment
IC50 [3]: 80.7 µM
A5+ only apoptotic cell deaths (4T1 cells [4]; [5]): without notable increases
proportion of PI+ only necrosis (4T1 cells [4]; [5]): 18%
proportion of PI+A5+ necrosis (4T1 cells [4]; [5]): 4%
PI+ only or PI+A5+ necrotic cell death (4T1 cells [4]; concentration-resolved study after 3 h treatment, maximum): ≤ 26%
time after treatment at which mainly PI+A5+ and minor PI+ only necrotic cell death was induced (4T1 cells [4]; time resolved study, 450 μM Zn): 1.5 h
